# Measured values published in patent publication US11708338B2, “Substituted phenyl sulfonyl phenyl triazole thiones and uses thereof” (Neuropore Therapies, Inc., priority 2017, dated 2023).
# System: amyloid beta
# Assay: Amyloid beta (6E10) immunostaining in brain of L41 APP transgenic mice
# Type: in vivo, mouse
# Conditions: 5 mg/kg daily i.p.
# Method: As described earlier, Line 41 transgenic mice express high levels of the mutant hAPP751 and develop mature plaques in the cortex, hippocampus, thalamus and olfactory region of mouse brain. The effects of Compound 1 on Amyloid beta plaque formation were assessed in both L41 APP transgenic and non-transgenic mice in a 1 month administration study. After 30 days, the mice were sacrificed, and immunofluorescence (IF) detection of amyloid beta were assessed in the harvested brain tissues.
# The harvested brain tissues were drop fixed using 4% PFA and sectioned on a vibratome, and representative sections containing the neuropil of cortex, hippocampus and striatum were assessed for amyloid beta with standard IHC staining.
# On approximately day 30, all subjects were euthanized within 2 hours of the last treatment and brain and other samples were collected. Brains were removed and divided sagitally. […]
# Prepared slides were imaged at 40× using a high-resolution Hamamatsu Nanozoomer™ scanner located in the Microscopy Core in the UCSD Department of Neurosciences. Digital images were then transferred to Neuropore and analyzed using the Halo® imaging software package (Indica Labs, Corrales, N. Mex.). […] Images were evaluated for specimen and imaging problems and any issues were noted prior to unblinding of samples and statistical analyses.
smiles,measurement,value
"O=S(=O)(c1ccc(-n2cn[nH]c2=S)cc1)c1ccc(Cl)c(C(F)(F)F)c1 [Compound 1, 4-(4-((4-chloro-3-(trifluoromethyl)phenyl)sulfonyl)phenyl)-2,4-dihydro-3H-1,2,4-triazole-3-thione]","amyloid beta level vs vehicle-treated Line 41 mice, quantification",reduces the amyloid beta level in a statistically significant manner
